Laboratory results taken from patent US9963445B2, “Chemical compounds” (SYNGENTA PARTICIPATIONS AG, priority 2013, dated 2018).

How the values were obtained:
Format in all cases: in vivo
Amaranthus retroflexus [1] = assay: Post-emergence herbicidal activity, glasshouse pot test; set-up: key: 0 = no damage to plant, 5 = total damage to plant; settings: Application post-emergence, rate 1000 g/ha, evaluated after 13 days
Outline: (§1)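 Pot-grown seedlings, sown in standard soil, were sprayed 8 days after sowing and kept in a controlled glasshouse (24/16 °C, 14 h photoperiod, 65% humidity). Injury was assessed visually 13 days later on a scale where 5 means total damage.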

Alopecurus myosuroides [2] = assay: as above; set-up: key: 0 = no damage to plant, 5 = total damage to plant; settings: Application post-emergence, rate 1000 g/ha, evaluated after 13 days
Outline: as §1

Setaria faberi [3] = assay: as above; set-up: key: 0 = no damage to plant, 5 = total damage to plant; settings: Application post-emergence, rate 1000 g/ha, evaluated after 13 days
Outline: as §1

Echinochloa crus-galli [4] = assay: as above; set-up: key: 0 = no damage to plant, 5 = total damage to plant; settings: Application post-emergence, rate 1000 g/ha, evaluated after 13 days
Outline: as §1

Abutilon theophrasti [5] = assay: as above; set-up: key: 0 = no damage to plant, 5 = total damage to plant; settings: Application post-emergence, rate 1000 g/ha, evaluated after 13 days
Outline: as §1

zea mays [6] = assay: as above; set-up: key: 0 = no damage to plant, 5 = total damage to plant; settings: Application post-emergence, rate 1000 g/ha, evaluated after 13 days
Outline: as §1

Amaranthus retroflexus [7] = assay: Pre-emergence herbicidal activity, glasshouse pot test; settings: pre-emergence spray, rate 1000 g/ha, evaluated after 13 days, scale 0-5
Outline: (§2)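 Test species were sown in pots and, after one day under controlled glasshouse conditions, treated with an aqueous spray of the active ingredient in acetone/water containing 0.5% Tween 20. Evaluation followed 13 days later, scoring plant damage from 0 (none) to 5 (total).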

Alopecurus myosuroides [8] = assay: as above; settings: pre-emergence spray, rate 1000 g/ha, evaluated after 13 days, scale 0-5
Outline: as §2

Setaria faberi [9] = assay: as above; settings: pre-emergence spray, rate 1000 g/ha, evaluated after 13 days, scale 0-5
Outline: as §2

Echinochloa crus-galli [10] = assay: as above; settings: pre-emergence spray, rate 1000 g/ha, evaluated after 13 days, scale 0-5
Outline: as §2

Abutilon theophrasti [11] = assay: as above; settings: pre-emergence spray, rate 1000 g/ha, evaluated after 13 days, scale 0-5
Outline: as §2

zea mays [12] = assay: as above; settings: pre-emergence spray, rate 1000 g/ha, evaluated after 13 days, scale 0-5
Outline: as §2

| Structure (SMILES) | AMARE herbicidal damage score (Amaranthus retroflexus [1]) | ALOMY herbicidal damage score (Alopecurus myosuroides [2]) | SETFA herbicidal damage score (Setaria faberi [3]) | ECHCG herbicidal damage score (Echinochloa crus-galli [4]) | ABUTH herbicidal damage score (Abutilon theophrasti [5]) | ZEAMX herbicidal damage score (zea mays [6]) | AMARE damage score, application pre-emergence (Amaranthus retroflexus [7]) | ALOMY damage score, application pre-emergence (Alopecurus myosuroides [8]) | SETFA damage score, application pre-emergence (Setaria faberi [9]) | ECHCG damage score, application pre-emergence (Echinochloa crus-galli [10]) | ABUTH damage score, application pre-emergence (Abutilon theophrasti [11]) | ZEAMX damage score, application pre-emergence (zea mays [12]) |
| --- | --- | --- | --- | --- | --- | --- | --- | --- | --- | --- | --- | --- |
| CSc1ccc(N2C(=O)C(Cl)=C(C)C2OC(C)=O)nc1 (stereo not drawn) [AF19] | 5 | 4 | 3 | 3 | 3 | 1 | 0 | 0 | 0 | 0 | 0 | 0 |
| CC(C)(C)C1=C(Cl)C(=O)N(c2cc(C(F)(F)F)ccn2)C1O (stereo not drawn) [AF82] | 0 | 0 | 0 | 3 | 0 | 2 | 0 | 0 | 0 | 0 | 0 | 1 |
| CC1=C(Cl)C(=O)N(c2cc(C(C)(C)C#N)ccn2)C1O (stereo not drawn) [AF100] | 5 | 5 | 5 | 5 | 5 | 4 | 5 | 4 | 5 | 5 | 3 | 3 |
| COC1=C(C)C(O)N(c2ccc(C(=O)NC(C)(C)C)nn2)C1=O (stereo not drawn) [BI6] | 5 | 4 | 5 | 5 | 5 | 4 | 5 | 4 | 5 | 4 | 5 | 2 |
| CC(=O)c1ccnc(N2C(=O)C(Cl)=C(C)C2O)c1 (stereo not drawn) [AF30] | 1 | 2 | 3 | 2 | 1 | 1 | 3 | 1 | 1 | 2 | 3 | 1 |
| COC1=C(C)C(O)N(c2cc(C)c(Cl)nn2)C1=O (stereo not drawn) [BI29] | 5 | 2 | 4 | 3 | 1 | 0 | 3 | 3 | 2 | 3 | 0 | 1 |
| CC#Cc1nnc(N2C(=O)C(OC)=C(C)C2O)cc1C(C)(F)F (stereo not drawn) [BI18] | 5 | 3 | 4 | 5 | 5 | 2 | 4 | 3 | 3 | 3 | 4 | 1 |
| CC1=C(Cl)C(=O)N(c2cc(C(F)(F)F)c(-c3cccc(C#N)c3)cn2)C1O (stereo not drawn) [AF95] | 5 | 2 | 4 | 2 | 3 | 2 | 0 | 0 | 0 | 0 | 0 | 0 |
| COC1=C(C)C(O)N(c2cc(C(C)(C)F)c(C#N)nn2)C1=O (stereo not drawn) [BI15] | 5 | 4 | 5 | 5 | 5 | 2 | 5 | 4 | 5 | 5 | 5 | 2 |
| C=C(OCC)c1nnc(N2C(=O)C(OC)=C(C)C2O)cc1C(C)(C)F (stereo not drawn) [BI13] | 5 | 5 | 5 | 5 | 5 | 2 | 5 | 4 | 5 | 5 | 5 | 2 |
| CC1=C(Cl)C(=O)N(c2cc(C(F)(F)Cl)ccn2)C1O (stereo not drawn) [AF98] | 5 | 5 | 5 | 5 | 5 | 3 | 5 | 3 | 5 | 5 | 1 | 2 |
| CCC1=C(Cl)C(=O)N(c2cc(C(C)(C)C#N)ncn2)C1O (stereo not drawn) [CF10] | 5 | 5 | 5 | 5 | 5 | 5 | 5 | 2 | 4 | 4 | 5 | 4 |
